Article PMC7377239, “Cardiovascular Effects of Polychlorinated Biphenyls and Their Major Metabolites” (Environmental Health Perspectives, 2020)

Columns and labels:
[1] = test system: iPSC-CMs, iPSC-ECs and HUVECs phenotypes; experiment: ToxPi 2.0 integration of POD values and physicochemical descriptors; set-up: species or system human; settings: ToxPi-scaled (0-1) score; for huvec.cyto.24hr / huvec.mito.24hr / huvec.mitoint.24hr / huvec.nma.24hr / huvec.tc.24hr / huvec.mtl.18hr / huvec.tlps.18hr / huvec.tta.18hr / huvec.ttl.18hr: HUVECs; for huvec.mtl.18hr / huvec.tlps.18hr / huvec.tta.18hr / huvec.ttl.18hr / endo.mtl.18hr / endo.tlps.18hr / endo.tta.18hr / endo.ttl.18hr: tube formation; for cm.amp.avg.90min / cm.amp.cv.90min / cm.bpm.90min / cm.cam.90min / cm.decay.rise.90min / cm.mii.90min / cm.mito.90min / cm.spacing.cv.90min / cm.tc.90min / cm.amp.avg.24hrs / cm.amp.cv.24hrs / cm.bpm.24hrs / cm.cam.24hrs / cm.decay.rise.24hrs / cm.mii.24hrs / cm.mito.24hrs / cm.spacing.cv.24hrs / cm.tc.24hrs: iPSC cardiomyocytes; for endo.cyto.24hr / endo.mito.24hr / endo.mitoint.24hr / endo.nma.24hr / endo.tc.24hr / endo.mtl.18hr / endo.tlps.18hr / endo.tta.18hr / endo.ttl.18hr: iPSC endothelial cells
Summary of the method: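 Phenotypic readouts in iPSC-cardiomyocytes, iPSC-endothelial cells and HUVECs were normalised to 0.5% DMSO vehicle and fitted to a four-parameter logistic model. POD set at one SD cutoff of vehicle means, with 100 μM assigned when no response. PODs and physicochemical descriptors combined in ToxPi 2.0 scores.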

[2] = test system: porcine pulmonary artery–derived EC; set-up: method as in Hennig et al. 2002, 2005; Toborek et al. 1995; settings: ref Hennig et al. 2002, 2005, Toborek et al. 1995; cited from earlier work

Clc1cc(Cl)c(-c2cc(Cl)c(Cl)cc2Cl)cc1Cl [PCB 153, 2,2′,4,4′,5,5′-hexachlorobiphenyl]
huvec.cyto.24hr [1]: 0.8978
huvec.mito.24hr [1]: 0.5815
huvec.mitoint.24hr [1]: 0.9487
huvec.nma.24hr [1]: 0.5857
huvec.tc.24hr [1]: 0.8978
huvec.mtl.18hr [1]: 0.3619
huvec.tlps.18hr [1]: 0.09107
huvec.tta.18hr [1]: 0.4811
huvec.ttl.18hr [1]: 1
cm.amp.avg.90min [1]: 0.6441
cm.amp.cv.90min [1]: 0.2203
cm.bpm.90min [1]: 0.7602
cm.cam.90min [1]: 0.6527
cm.decay.rise.90min [1]: 0.5479
cm.mii.90min [1]: 0
cm.mito.90min [1]: 0.6603
cm.spacing.cv.90min [1]: 0.07557
cm.tc.90min [1]: 0.6003
cm.amp.avg.24hrs [1]: 0
cm.amp.cv.24hrs [1]: 0.175
cm.bpm.24hrs [1]: 0.4569
cm.cam.24hrs [1]: 0.2888
cm.decay.rise.24hrs [1]: 0.5277
cm.mii.24hrs [1]: 0.2429
cm.mito.24hrs [1]: 0.486
cm.spacing.cv.24hrs [1]: 0.2007
cm.tc.24hrs [1]: 0.5053
endo.cyto.24hr [1]: 0.2934
endo.mito.24hr [1]: 0.2934
endo.mitoint.24hr [1]: 1
endo.nma.24hr [1]: 0.08276
endo.tc.24hr [1]: 0.1249
endo.mtl.18hr [1]: 1
endo.tlps.18hr [1]: 0.6326
endo.tta.18hr [1]: 0.297
endo.ttl.18hr [1]: 0.4748
EC toxicity [2]: much less potent

Oc1cc(Cl)cc(-c2cccc(Cl)c2)c1 [5-OH-PCB 11]
huvec.cyto.24hr [1]: 0.4815
huvec.mito.24hr [1]: 0.5672
huvec.mitoint.24hr [1]: 0.6755
huvec.nma.24hr [1]: 0.5619
huvec.tc.24hr [1]: 0.4815
huvec.mtl.18hr [1]: 0.5955
huvec.tlps.18hr [1]: 0
huvec.tta.18hr [1]: 0
huvec.ttl.18hr [1]: 0.1684
cm.amp.avg.90min [1]: 0.6478
cm.amp.cv.90min [1]: 0.2678
cm.bpm.90min [1]: 0.7407
cm.cam.90min [1]: 0.7498
cm.decay.rise.90min [1]: 0.5778
cm.mii.90min [1]: 0.4013
cm.mito.90min [1]: 0.8059
cm.spacing.cv.90min [1]: 0.07982
cm.tc.90min [1]: 0.8069
cm.amp.avg.24hrs [1]: 0.069
cm.amp.cv.24hrs [1]: 0.2233
cm.bpm.24hrs [1]: 0.1451
cm.cam.24hrs [1]: 0.2664
cm.decay.rise.24hrs [1]: 0.2666
cm.mii.24hrs [1]: 0.6539
cm.mito.24hrs [1]: 0.4142
cm.spacing.cv.24hrs [1]: 0.2695
cm.tc.24hrs [1]: 0.5144
endo.cyto.24hr [1]: 0.1503
endo.mito.24hr [1]: 0.1503
endo.mitoint.24hr [1]: 0.08226
endo.nma.24hr [1]: 0.3443
endo.tc.24hr [1]: 0.1482
endo.mtl.18hr [1]: 0.3075
endo.tlps.18hr [1]: 0.4586
endo.tta.18hr [1]: 0.2424
endo.ttl.18hr [1]: 0.241

COc1cc(Cl)c(-c2cc(Cl)ccc2Cl)cc1Cl [4-OMe-PCB 52, 4-methoxy-2,2′,5,5′-tetrachlorobiphenyl]
huvec.cyto.24hr [1]: 0.503
huvec.mito.24hr [1]: 0.6182
huvec.mitoint.24hr [1]: 0.7163
huvec.nma.24hr [1]: 0.4778
huvec.tc.24hr [1]: 0.503
huvec.mtl.18hr [1]: 0.3949
huvec.tlps.18hr [1]: 0.3694
huvec.tta.18hr [1]: 0
huvec.ttl.18hr [1]: 0
cm.amp.avg.90min [1]: 0.7151
cm.amp.cv.90min [1]: 0.1921
cm.bpm.90min [1]: 0.6456
cm.cam.90min [1]: 0.5317
cm.decay.rise.90min [1]: 0.5533
cm.mii.90min [1]: 0.2088
cm.mito.90min [1]: 0.6868
cm.spacing.cv.90min [1]: 0.09243
cm.tc.90min [1]: 0.4554
cm.amp.avg.24hrs [1]: 0
cm.amp.cv.24hrs [1]: 0.07106
cm.bpm.24hrs [1]: 0.2075
cm.cam.24hrs [1]: 0.1487
cm.decay.rise.24hrs [1]: 0.2631
cm.mii.24hrs [1]: 0.763
cm.mito.24hrs [1]: 0.2211
cm.spacing.cv.24hrs [1]: 0.2504
cm.tc.24hrs [1]: 0.2416
endo.cyto.24hr [1]: 0.1456
endo.mito.24hr [1]: 0.1456
endo.mitoint.24hr [1]: 0
endo.nma.24hr [1]: 0.1018
endo.tc.24hr [1]: 0.1602
endo.mtl.18hr [1]: 0.06827
endo.tlps.18hr [1]: 0.09286
endo.tta.18hr [1]: 0.06026
endo.ttl.18hr [1]: 0.05573
